Where a name gives a salt, the structure may show the parent alone.
Experiment: Drug release from surface-bound mucin layer on PDMS (UV absorbance)
Assay type: physicochemical
Procedure: The coupling reaction was performed as described previously^9. Briefly, PDMS was treated with O2 plasma at 0.4 mbar pressure and an intensity of 30 W for 90 s. The plasma treatment replaces the […] groups on the polymer surface with hydroxyl groups, which enables a covalent attachment of silane molecules. The silane was used as a coupling agent to further allow for attaching porcine gastric mucin to the surface via carbodiimide coupling. Thus, we here used N-[3-Trimethoxysilyl)propyl]ethylenediamine triacetic acid trisodium salt (TMS-EDTA, abcr, Karlsruhe, Germany), which carries three carboxy groups on the other end. TMS-EDTA was diluted to a final concentration of 0.1% (w/v) in 10 mM Acetate buffer (pH=4.5). The activated PDMS samples were then incubated in the silane solution for 5 h at 60° C. Afterwards, the samples were washed in 80% ethanol (Carl Roth) for 1 h to remove unbound residues before they were placed in the oven at 60° C. for another 60 min to stabilize the bond between the PDMS and the silane.
In the next step, the carboxyl groups of the silane were activated. Therefore, the surface was covered with 100 mM MES buffer (pH=5.0) containing 5 mM 1-Ethyl-3-(3-dimethylaminopropyl)-carbodiimid-hydrochloride (EDC, Carl Roth) and 5 mM N-Hydroxysulfosuccinimide (sulfo-NHS, abcr) at RT for 30 min. Afterwards, the EDC-NHS solution was replaced by phosphate-buffered saline (pH=7.4, Lonza, Velviers, Belgium) containing 0.1% (w/v) of purified mucin and stored at 4° C. overnight. Amine groups from the mucin protein core then react with the EDC activated groups of the silane and form a stable covalent bond.
PDMS was allowed to crosslink at 60° C. overnight. Afterwards, this PDMS layer was coated with mucin as described in Section 1.2.
The mucin layer was loaded with the drug by incubating it in a drug-containing solution (TCL or VAC, 0.5 mg/mL) at 4° C. overnight. […] […] Before starting the release experiment, excessive glycerol, drug, and salt were removed and replaced by 2 mL of ultrapure water.
The […], and the release of TCL was tracked spectroscopically with a specord210 spectral photometer (Analytikjena, Jena, Germany) at 360 nm. The amount of released drug was determined by a standard curve which was generated by measuring serial dilutions of a drug solution (see FIG. 1). The release of VAN was also tracked spectroscopically, however, at 282 nm (for calibration curve, see FIG. 2).

## CN[C@H](CC(C)C)C(=O)N[C@H]1C(=O)N[C@@H](CC(N)=O)C(=O)N[C@H]2C(=O)N[C@H]3C(=O)N[C@H](C(=O)N[C@H](C(=O)O)c4cc(O)cc(O)c4-c4cc3ccc4O)[C@H](O)c3ccc(c(Cl)c3)Oc3cc2cc(c3O[C@@H]2O[C@H](CO)[C@@H](O)[C@H](O)[C@H]2O[C@H]2C[C@](C)(N)[C@H](O)[C@H](C)O2)Oc2ccc(cc2Cl)[C@H]1O [Vancomycin, Vancomycin hydrochloride]
Group 1: glycerol, Mg^2+, trigger 150 mM NaCl, time 0 h
  CTCL, vancomycin release: 0.0014 ± 0.0010 mg/mL
Group 1: glycerol, Mg^2+, trigger 150 mM NaCl, time 0.5 h
  CTCL, vancomycin release: 0.0051 ± 0.0029 mg/mL
Group 1: glycerol, Mg^2+, trigger 150 mM NaCl, time 1.0 h
  CTCL, vancomycin release: 0.0083 ± 0.0042 mg/mL
Group 1: glycerol, Mg^2+, trigger 150 mM NaCl, time 2.0 h
  CTCL, vancomycin release: 0.0098 ± 0.0031 mg/mL
Group 1: glycerol, Mg^2+, trigger 150 mM NaCl, time 3.0 h
  CTCL, vancomycin release: 0.0097 ± 0.0029 mg/mL
Group 2: glycerol, Mg^2+, water, time 0 h
  CTCL, vancomycin release: 0.0008 ± 0.0008 mg/mL
Group 2: glycerol, Mg^2+, water, time 0.5 h
  CTCL, vancomycin release: 0.0008 ± 0.0011 mg/mL
Group 2: glycerol, Mg^2+, water, time 1.0 h
  CTCL, vancomycin release: 0.0022 ± 0.0007 mg/mL
Group 2: glycerol, Mg^2+, water, time 2.0 h
  CTCL, vancomycin release: 0.0007 ± 0.0009 mg/mL
Group 2: glycerol, Mg^2+, water, time 3.0 h
  CTCL, vancomycin release: 0.0012 ± 0.0006 mg/mL
Group 3: no condensation, Mg^2+, trigger 150 mM NaCl, time 0 h
  CTCL, vancomycin release: 0.0018 ± 0.0008 mg/mL
Group 3: no condensation, Mg^2+, trigger 150 mM NaCl, time 0.5 h
  CTCL, vancomycin release: 0.0024 ± 0.0010 mg/mL
Group 3: no condensation, Mg^2+, trigger 150 mM NaCl, time 1.0 h
  CTCL, vancomycin release: 0.0034 ± 0.0009 mg/mL
Group 3: no condensation, Mg^2+, trigger 150 mM NaCl, time 2.0 h
  CTCL, vancomycin release: 0.0034 ± 0.0003 mg/mL
Group 3: no condensation, Mg^2+, trigger 150 mM NaCl, time 3.0 h
  CTCL, vancomycin release: 0.0034 ± 0.0003 mg/mL
Group 4: no condensation, no stabilization, trigger 150 mM NaCl, time 0 h
  CTCL, vancomycin release: 0.0033 ± 0.0022 mg/mL
Group 4: no condensation, no stabilization, trigger 150 mM NaCl, time 0.5 h
  CTCL, vancomycin release: 0.0034 ± 0.0014 mg/mL
Group 4: no condensation, no stabilization, trigger 150 mM NaCl, time 1.0 h
  CTCL, vancomycin release: 0.0022 ± 0.0005 mg/mL
Group 4: no condensation, no stabilization, trigger 150 mM NaCl, time 2.0 h
  CTCL, vancomycin release: 0.0011 ± 0.0010 mg/mL
Group 4: no condensation, no stabilization, trigger 150 mM NaCl, time 3.0 h
  CTCL, vancomycin release: 0.0013 ± 0.0011 mg/mL
Mg^2+, 150 mM NaCl
  release after exposure to physiological trigger: release was observed
Mg^2+, no trigger
  release where the trigger was absent: almost no release was observed
